Broadly, the chromatographic logP is a lipophilicity value derived from retention on a column. High values mean higher lipophilicity, low ones lower lipophilicity.

The source of these data is US10667517B2, “2-(Het)aryl-substituted fused heterocycle derivatives as pesticides” (BAYER CROPSCIENCE AKTIENGESELLSCHSAFT, priority 2015, dated 2020).

The nature of one series: log P (neutral), HPLC on reversed-phase column (C 18), LC-MS neutral range. The series is classed as physicochemical. The note with it: HPLC reversed-phase C 18, 55° C., pH 7.8, ammonium hydrogencarbonate/acetonitrile. How it is done:
Temperature: 55° C. […] Called log P (neutral) in the table.
As to `O=C(CBr)c1nc(F)ccc1F` [2-Bromo-1-(3,6-difluoropyridin-2-yl)ethanone], the “log P (neutral)” value is on record as 1.95.

Take `CCS(=O)(=O)c1ccc(NC2COC2)nc1-c1nc2cc(C(F)(F)F)cnc2n1C` [Example I-26]: the “log P (neutral)” value is 2.27.

In the case of `CCS(=O)(=O)c1ccc(-n2nccn2)nc1-c1cn2cnc(C(F)(F)F)cc2n1` [Example I-27], the “log P (neutral)” value is 2.28. On the same count and under the same terms, for `CCS(=O)(=O)c1ccc(-n2cncn2)nc1-c1cn2cnc(C(F)(F)F)cc2n1` [Example I-28] the value was 2.19.

In the case of `CCS(=O)(=O)c1ccc(NC(=O)C(F)(F)F)nc1-c1nc2cc(C(F)(F)F)cnc2o1` [Example I-40], the “log P (neutral)” value was 3.09. Still for that read-out and setting: as for `CCS(=O)(=O)c1ccc(-n2cc(Cl)cn2)nc1-c1nc2cc(C(F)(F)F)cnc2o1` [Example I-41], the figure is 4.01. For `CCS(=O)(=O)c1ccc(-n2ccc(C(F)(F)F)n2)nc1-c1nc2cc(C(F)(F)F)cnc2o1` [Example I-42], the “log P (neutral)” value amounted to 4.17.

As for `CCS(=O)(=O)c1ccc(-n2cncn2)nc1-c1nc2cc(C(F)(F)F)nnc2n1C` [Example I-43], the “log P (neutral)” value was determined as 2.08. Still for that read-out and setting: for `CCS(=O)(=O)c1ccc(-n2nccn2)nc1-c1nc2cc(C(F)(F)F)nnc2n1C` [Example I-44] the value was 2.21. On the same count and under the same terms, as for `CCS(=O)(=O)c1ccc(-n2cccn2)nc1-c1cn2cnc(C(F)(F)F)cc2n1` [Example I-46], the figure is 2.58.

Still in this series, the particulars now being: pH 7.8.
Consider `CCS(=O)(=O)c1ccc(-n2ccnc2)nc1-c1cn2cnc(C(F)(F)F)cc2n1` [Example I-45], for which the “log P (neutral)” value is reported as 2.07.

The same series, now with this note: reversed-phase HPLC column (C 18), pH 7.8, HPLC reversed-phase C 18, 55° C., pH 7.8, ammonium hydrogencarbonate/acetonitrile.
`CC(=O)c1nc(F)ccc1F` [1-(3,6-Difluoropyridin-2-yl)ethanone] came in with a chromatographic logP of 1.24. On the same count and under the same terms, as for `O=C(CBr)c1nc(F)ccc1F` [2-Bromo-1-(3,6-difluoropyridin-2-yl)ethanone], the figure is 1.93; as for `CON(C)C(=O)c1nc(F)ccc1F` [3,6-Difluoro-N-methoxy-N-methylpyridine-2-carboxamide], 1.05; as for `CCSc1ccc(Br)nc1C(=O)O` [6-Bromo-3-(ethylsulphanyl)pyridine-2-carboxylic acid], 1.79. The same measure, in the same setting: for `CCS(=O)(=O)c1ccc(-n2cc(Cl)cn2)nc1-c1cn2cc(C(F)(F)F)ncc2n1` [Example I-18, 2-[6-(4-Chloro-1H-pyrazol-1-yl)-3-(ethylsulphonyl)pyridin-2-yl]-6-(trifluoromethyl)imidazo[1,2-a]pyrazine] the value was 3.44; for `CCS(=O)(=O)c1ccc(NC(C)=O)nc1-c1nc2cc(C(F)(F)F)cnc2o1` [Example I-19, N-{5-(Ethylsulphonyl)-6-[6-(trifluoromethyl) [1,3]oxazolo[5,4-b]pyridin-2-yl]pyridin-2-yl}acetamide], 2.44; for `CCS(=O)(=O)c1ccc(C(=O)NC)nc1-c1nc2cc(C(F)(F)F)cnc2n1C` [Example I-34, 5-(Ethylsulphonyl)-N-methyl-6-[3-methyl-6-(trifluoromethyl)-3H-imidazo[4,5-b]pyridin-2-yl]pyridine-2-carboxamide], 2.36. As for `CCS(=O)(=O)c1ccc(-n2cc(Cl)cn2)nc1-c1nc2cc(C(F)(F)F)nnc2n1C` [Example I-35, 6-[6-(4-Chloropyrazol-1-yl)-3-ethylsulphonyl-2-pyridyl]-7-methyl-3-(trifluoromethyl)imidazo[4,5-c]pyridazine], the chromatographic logP came to 3.38.

Consider `CCS(=O)(=O)c1ccc(C(=O)NC)nc1-c1nc2cc(C(F)(F)F)nnc2n1C` [Example I-39, 5-(Ethylsulphonyl)-N-methyl-6-[7-methyl-3-(trifluoromethyl)-7H-imidazo[4,5-c]pyridazin-6-yl]pyridine-2-carboxamide], for which the chromatographic logP was 1.96. For `Cn1c(-c2nc(F)ccc2F)nc2cc(C(F)(F)F)ccc21` [IX-1, 2-(3,6-Difluoropyridin-2-yl)-1-methyl-5-(trifluoromethyl)-1H-benzimidazole], the chromatographic logP is 2.83. The compound `Cn1c(-c2nc(F)ccc2F)nc2cc(C(F)(F)F)cnc21` [IX-2, 2-(3,6-Difluoropyridin-2-yl)-3-methyl-6-(trifluoromethyl)-3H-imidazo[4,5-b]pyridine] registered a chromatographic logP of 2.72.

Compound `Cn1c(-c2nc(Cl)ccc2Cl)nc2cc3c(cc21)OC(F)(F)O3` [IX-3, 6-(3,6-Dichloro-2-pyridyl)-2,2-difluoro-7-methyl-[1,3]dioxolo[4,5-f]benzimidazole] yielded a chromatographic logP of 3.22. On the same count and under the same terms, as for `FC1(F)Oc2cc3nc(-c4nc(Cl)ccc4Cl)[nH]c3cc2O1` [IX-4, 6-(3,6-Dichloro-2-pyridyl)-2,2-difluoro-5H-[1,3]dioxolo[4,5-f]benzimidazole], the figure is 3.2. The compound `Fc1ccc(F)c(-c2cn3cnc(C(F)(F)F)cc3n2)n1` [IX-5, 2-(3,6-Difluoropyridin-2-yl)-7-(trifluoromethyl)imidazo[1,2-c]pyrimidine] registered a chromatographic logP of 2.02. The same measure, in the same setting: as for `Cn1c(-c2nc(Cl)ccc2Cl)nc2cc(C(F)(F)F)nnc21` [IX-7, 6-(3,6-Dichloro-2-pyridyl)-7-methyl-3-(trifluoromethyl)imidazo[4,5-c]pyridazine], the figure is 2.65; as for `CCSc1ccc(Br)nc1C(=O)Nc1cc(C(F)(F)F)cnc1Cl` [LXIX-1, 6-Bromo-N-[2-chloro-5-(trifluoromethyl)pyridin-3-yl]-3-(ethylsulphanyl)pyridine-2-carboxamide], 5.27. Consider `CCSc1ccc(SCC)c(-c2cn3cc(C(F)(F)F)ncc3n2)n1` [LXXI-1, 2-[3,6-Bis(ethylsulphanyl)pyridin-2-yl]-6-(trifluoromethyl)imidazo[1,2-a]pyrazine], for which the chromatographic logP turned out to be 4. For `CCS(=O)(=O)c1ccc(S(=O)(=O)CC)c(-c2cn3cnc(C(F)(F)F)cc3n2)n1` [LXXIII-1, 2-[3,6-Bis(ethylsulphonyl)pyridin-2-yl]-7-(trifluoromethyl)imidazo[1,2-c]pyrimidine], the chromatographic logP amounted to 2.28. The compound `CCS(=O)(=O)c1ccc(S(=O)(=O)CC)c(-c2cn3cc(C(F)(F)F)ncc3n2)n1` [LXXIII-2, 2-[3,6-Bis(ethylsulphonyl)pyridin-2-yl]-6-(trifluoromethyl)imidazo[1,2-a]pyrazine] registered a chromatographic logP of 2.23.

Turning to `CCSc1ccc(C(=O)OC)nc1-c1nc2cc(C(F)(F)F)cnc2n1C` [LXXIX-1, Methyl 5-(ethylsulphanyl)-6-[3-methyl-6-(trifluoromethyl)-3H-imidazo[4,5-b]pyridin-2-yl]pyridine-2-carboxylate], the chromatographic logP was 3.25.

As to `COC(=O)c1ccc(Cl)c(-c2nc3cc(C(F)(F)F)cnc3n2C)n1` [LXXVIII-1, Methyl 5-chloro-6-[3-methyl-6-(trifluoromethyl)-3H-imidazo[4,5-b]pyridin-2-yl]pyridine-2-carboxylate], the chromatographic logP was 2.7.

As to `CCS(=O)(=O)c1ccc(C(=O)OC)nc1-c1nc2cc(C(F)(F)F)cnc2n1C` [LXXX-1, Methyl 5-(ethylsulphonyl)-6-[3-methyl-6-(trifluoromethyl)-3H-imidazo[4,5-b]pyridin-2-yl]pyridine-2-carboxylate], the chromatographic logP is 2.61. This chromatographic logP and that of the compound before are within 0.2 log units of each other. Still for that read-out and setting: for `CCS(=O)(=O)c1ccc(C(=O)OC)nc1-c1nc2cc(C(F)(F)F)nnc2n1C` [LXXX-2, Methyl 5-(ethylsulphonyl)-6-[7-methyl-3-(trifluoromethyl)-7H-imidazo[4,5-c]pyridazin-6-yl]pyridine-2-carboxylate] the value was 2.19.

In the case of `CCSc1ccc(F)nc1-c1nc2cc(C(F)(F)F)ccc2n1C` [XI-1, 2-[3-(Ethylsulphanyl)-6-fluoropyridin-2-yl]-1-methyl-5-(trifluoromethyl)-1H-benzimidazole], the chromatographic logP turned out to be 3.44.

`CCSc1ccc(F)nc1-c1nc2cc(C(F)(F)F)cnc2n1C` [XI-2, 2-[3-(Ethylsulphanyl)-6-fluoropyridin-2-yl]-3-methyl-6-(trifluoromethyl)-3H-imidazo[4,5-b]pyridine]: the chromatographic logP amounted to 3.45. This chromatographic logP and that of the compound before are within 0.2 log units of each other. Same read-out and setting: as for `CCSc1ccc(Cl)nc1-c1nc2cc3c(cc2n1C)OC(F)(F)O3` [XI-3, 6-(6-Chloro-3-ethylsulphanyl-2-pyridyl)-2,2-difluoro-7-methyl-[1,3]dioxolo[4,5-f]benzimidazole], the figure is 3.8; as for `CCSc1ccc(F)nc1-c1cn2cnc(C(F)(F)F)cc2n1` [XI-4, 2-[3-(Ethylsulphanyl)-6-fluoropyridin-2-yl]-7-(trifluoromethyl)imidazo[1,2-c]pyrimidine], 2.78; as for `CCSc1ccc(Br)nc1-c1nc2cc(C(F)(F)F)cnc2o1` [XI-5, 2-[6-Bromo-3-(ethylsulphanyl)pyridin-2-yl]-6-(trifluoromethyl)[1,3]oxazolo[5,4-b]pyridine], 4.16.

In turn, `CCSc1ccc(Cl)nc1-c1nc2cc(C(F)(F)F)nnc2n1C` [XI-6, 6-(6-Chloro-3-ethylsulphanyl-2-pyridyl)-7-methyl-3-(trifluoromethyl)imidazo[4,5-c]pyridazine] came in with a chromatographic logP of 3.28. As for `CCS(=O)(=O)c1ccc(F)nc1-c1nc2cc(C(F)(F)F)ccc2n1C` [XIII-1, 2-[3-(Ethylsulphonyl)-6-fluoropyridin-2-yl]-1-methyl-5-(trifluoromethyl)-1H-benzimidazole], the chromatographic logP came to 2.96. As to `CCS(=O)(=O)c1ccc(F)nc1-c1nc2cc(C(F)(F)F)cnc2n1C` [XIII-2, 2-[3-(Ethylsulphonyl)-6-fluoropyridin-2-yl]-3-methyl-6-(trifluoromethyl)-3H-imidazo[4,5-b]pyridine], the chromatographic logP stood at 2.8.

`CCS(=O)(=O)c1ccc(Cl)nc1-c1nc2cc3c(cc2n1C)OC(F)(F)O3` [XIII-3, 6-(6-Chloro-3-ethylsulphonyl-2-pyridyl)-2,2-difluoro-7-methyl-[1,3]dioxolo[4,5-f]benzimidazole]: the chromatographic logP is 3.2.

For `CCS(=O)(=O)c1ccc(Cl)nc1-c1nc2cc(C(F)(F)F)nnc2n1C` [XIII-5, 6-(6-Chloro-3-ethylsulphonyl-2-pyridyl)-7-methyl-3-(trifluoromethyl)imidazo[4,5-c]pyridazine], the chromatographic logP is 2.6.
